From US20090239840A1, “AMINO SUBSTITUTED DIARYL[a,d]CYCLOHEPTENE ANALOGS AS [sequence] AGONISTS AND METHODS OF TREATMENT OF NEUROPSYCHIATRIC DISORDERS” (ACADIA PHARMACEUTICALS, INC., priority 2003, published 2009)

Assays:
[1] = tested on: hyperactivity induced by MK-801; assay: MK-801 induced hyperactivity mouse model; assay type: in vivo; conditions: mice, salts of the compounds
Method: (§1) Five of the compounds listed in Table 2 were tested in an in vivo assay predictive of antipsychotic activity. Salts of these compounds where administered to mice having hyperactivity induced by amphetamine or MK-801 administration. The compounds were administered both subcutaneously (sc) and orally (po).

CYP 3A4 = CYP 3A4 (Homo sapiens, UniProt P08684); assay: biochemical
Method: The compounds listed in Table 4 were profiled in a panel of in vitro assays for assessment of cardiovascular (hERG), drug-drug interaction (CYP inhibition), and mutagenic (Ames) liability. Microsomal stability was also determined by measuring both rat and human microsomal clearance.

[2] = Human microsomal clearance; assay type: in vitro ADME; conditions: human microsomes
muscarinic M1 receptor = molecular target: T1, muscarinic M1 receptor (Homo sapiens, UniProt P11229); assay: R-SAT functional screen, M1; assay type: cell-based; conditions: R-SAT
T1 construct: expressed in transfected cells
T1 sequence (P11229 1-460): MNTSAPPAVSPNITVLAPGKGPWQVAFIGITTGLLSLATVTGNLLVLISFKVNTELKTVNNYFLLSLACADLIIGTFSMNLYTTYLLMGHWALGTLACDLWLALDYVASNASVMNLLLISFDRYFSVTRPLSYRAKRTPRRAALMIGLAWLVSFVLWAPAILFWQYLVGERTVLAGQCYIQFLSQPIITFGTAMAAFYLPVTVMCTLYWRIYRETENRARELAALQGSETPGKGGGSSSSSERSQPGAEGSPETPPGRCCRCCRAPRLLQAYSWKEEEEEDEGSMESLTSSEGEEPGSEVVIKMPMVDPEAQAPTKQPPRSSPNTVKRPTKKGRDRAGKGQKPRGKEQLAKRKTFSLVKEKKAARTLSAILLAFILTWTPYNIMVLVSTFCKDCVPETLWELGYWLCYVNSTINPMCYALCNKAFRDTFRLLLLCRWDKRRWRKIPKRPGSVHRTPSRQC
In short: (§2)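 Receptor Selection and Amplification Technology (R-SAT) functional cell assay at M1, M2, M3 receptors. Values reported as efficacy (eff) and potency as pEC50.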

Ames mutagenesis assay = assay type: cell-based; conditions: to 10 μM (cytotoxicity precluded evaluation of all concentrations)
[3] = tested on: hyperactivity induced by amphetamine; assay: Amphetamine induced hyperactivity mouse model; assay type: in vivo; conditions: mice, salts of the compounds
Method: as §1

hERG = hERG (Homo sapiens, UniProt Q12809); assay: hERG assay
CYP 2C9 = CYP 2C9 (Homo sapiens, UniProt P11712); assay: CYP inhibition, 2C9; assay type: in vitro ADME
CYP 1A2 = molecular target: T2, CYP 1A2 (Homo sapiens, UniProt P05177); assay: CYP inhibition, 1A2; assay type: in vitro ADME
T2 sequence (P05177 1-516): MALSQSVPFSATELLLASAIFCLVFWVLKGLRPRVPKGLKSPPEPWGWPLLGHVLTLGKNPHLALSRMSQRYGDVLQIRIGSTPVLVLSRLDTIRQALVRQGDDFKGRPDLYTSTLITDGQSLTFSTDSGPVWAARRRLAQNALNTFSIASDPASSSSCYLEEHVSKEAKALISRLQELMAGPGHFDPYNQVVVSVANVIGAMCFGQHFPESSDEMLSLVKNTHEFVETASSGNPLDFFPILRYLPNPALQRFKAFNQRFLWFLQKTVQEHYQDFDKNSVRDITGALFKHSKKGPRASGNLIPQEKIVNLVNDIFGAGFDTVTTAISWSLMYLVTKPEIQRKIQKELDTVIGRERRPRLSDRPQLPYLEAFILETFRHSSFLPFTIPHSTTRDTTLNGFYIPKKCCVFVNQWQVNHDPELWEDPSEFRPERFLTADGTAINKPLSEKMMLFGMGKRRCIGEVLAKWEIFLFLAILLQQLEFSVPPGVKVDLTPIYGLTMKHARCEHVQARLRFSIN

novel object recognition = assay: Novel object recognition (NOR) assay; assay type: in vivo; conditions: mice; for NOR - 60 minutes post training / NOR - 120 minutes post training: dose approx. ID75 in MK-801 hyperactivity assay
Method: Salts of the compounds were administered to mice at one hour post-training (a time-point at which animals normally behaviorally discriminate between novel and familiar objects) and two hours post-training (a time-point at which these animals normally no longer discriminate between objects). Doses were selected to correspond to the approximate ID75 value in the MK-801 hyperactivity assay.

M1 receptor = molecular target: T3, M1 receptor (Homo sapiens, UniProt P11229); assay: Receptor profile, M1 agonist activity; conditions: for Emax: read-out: M1 intrinsic activity %
T3 sequence (P11229 1-460): T1 sequence (P11229 1-460)
Excerpt: (§3) Intrinsic activity was normalized to carbachol (M1) or pergolide (D2). For those ligands devoid of agonist activity, the values shown are pKi determined using [3H]raclopride.

CYP 2D6 = CYP 2D6 (Homo sapiens, UniProt P10635); assay: CYP inhibition, 2D6; assay type: in vitro ADME
muscarinic M2 receptor = molecular target: T4, muscarinic M2 receptor (Homo sapiens, UniProt P08172); assay: R-SAT functional screen, M2; assay type: cell-based; conditions: R-SAT; for Emax: read-out: M2 eff (efficacy); for EC50: read-out: M2 pEC50 (converted)
T4 construct: expressed in transfected cells
T4 sequence (P08172 1-466): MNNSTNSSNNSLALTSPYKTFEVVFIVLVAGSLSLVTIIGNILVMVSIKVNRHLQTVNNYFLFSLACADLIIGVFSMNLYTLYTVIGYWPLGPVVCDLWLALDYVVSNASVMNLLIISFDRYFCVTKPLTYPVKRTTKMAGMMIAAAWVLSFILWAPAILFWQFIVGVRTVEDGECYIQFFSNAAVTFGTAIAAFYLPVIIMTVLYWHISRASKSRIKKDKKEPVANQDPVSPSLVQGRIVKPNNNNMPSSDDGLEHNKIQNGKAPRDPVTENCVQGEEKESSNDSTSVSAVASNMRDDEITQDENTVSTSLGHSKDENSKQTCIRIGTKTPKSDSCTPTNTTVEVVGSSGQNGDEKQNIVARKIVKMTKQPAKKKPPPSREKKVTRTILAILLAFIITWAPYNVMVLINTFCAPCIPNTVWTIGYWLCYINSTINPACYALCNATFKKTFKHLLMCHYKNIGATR
In short: as §2

muscarinic M3 receptor = molecular target: T5, muscarinic M3 receptor (Homo sapiens, UniProt P20309); assay: R-SAT functional screen, M3; assay type: cell-based
T5 construct: expressed in transfected cells
Excerpt: The term “modulate” refers to the ability of a compound disclosed herein to alter the function of a muscarinic receptor. A modulator may activate the activity of a muscarinic receptor, may activate or inhibit the activity of a muscarinic receptor depending on the concentration of the compound exposed to the muscarinic receptor, or may inhibit the activity of a muscarinic receptor. The term “modulate” also refers to altering the function of a muscarinic receptor by increasing or decreasing the probability that a complex forms between a muscarinic receptor and a natural binding partner. A modulator may increase the probability that such a complex forms between the muscarinic receptor and the natural binding partner, may increase or decrease the probability that a complex forms between the muscarinic receptor and the natural binding partner depending on the concentration of the compound exposed to the muscarinic receptor, and or may decrease the probability that a complex forms between the muscarinic receptor and the natural binding partner. In some embodiments, modulation of the muscarinic receptor may be assessed using Receptor Selection and Amplification Technology (R-SAT) as described in U.S. Pat. No. 5,707,798, the disclosure of which is incorporated herein by reference in its entirety.
Several compounds disclosed herein were evaluated for activity at muscarinic receptors using Receptor Selection and Amplification Technology (R-SAT) as described in U.S. Pat. No. 5,707,798, the disclosure of which is incorporated herein by reference in its entirety. The efficacy (eff) and potency (expressed as pEC50) of these compounds are presented in Table 1 at M1, M2, and M3 receptors.

Rat microsomal clearance = assay type: in vitro ADME; conditions: rat microsomes
CYP 2C19 = CYP 2C19 (Homo sapiens, UniProt P33261); assay: CYP inhibition, 2C19; assay type: in vitro ADME
5-HT2A receptor = 5-HT2A receptor (Homo sapiens, UniProt P28223); assay: Receptor profile, 5-HT2A inverse agonism; assay type: cell-based; conditions: negative log of the inhibitory IC50 (inverse agonism); read-out: 5-HT2A pIEC50 (converted)
D2 receptor = D2 receptor (Homo sapiens, UniProt P14416); assay: Receptor profile, D2 agonist activity
D2 receptor, sequence (P14416 whole entry): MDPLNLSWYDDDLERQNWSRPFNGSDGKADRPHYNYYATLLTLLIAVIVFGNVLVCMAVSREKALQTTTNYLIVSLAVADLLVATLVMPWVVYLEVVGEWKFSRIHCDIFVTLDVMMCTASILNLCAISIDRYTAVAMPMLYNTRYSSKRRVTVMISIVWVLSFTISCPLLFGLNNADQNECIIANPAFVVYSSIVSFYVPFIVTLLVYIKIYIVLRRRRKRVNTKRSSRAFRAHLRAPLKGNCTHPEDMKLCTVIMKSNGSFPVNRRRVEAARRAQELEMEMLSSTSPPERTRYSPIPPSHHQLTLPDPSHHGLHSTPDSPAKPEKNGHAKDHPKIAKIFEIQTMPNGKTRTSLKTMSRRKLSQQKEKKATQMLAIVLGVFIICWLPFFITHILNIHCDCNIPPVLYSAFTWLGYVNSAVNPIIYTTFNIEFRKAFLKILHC
Excerpt: as §3

5-HT2A receptor, sequence (P28223 whole entry): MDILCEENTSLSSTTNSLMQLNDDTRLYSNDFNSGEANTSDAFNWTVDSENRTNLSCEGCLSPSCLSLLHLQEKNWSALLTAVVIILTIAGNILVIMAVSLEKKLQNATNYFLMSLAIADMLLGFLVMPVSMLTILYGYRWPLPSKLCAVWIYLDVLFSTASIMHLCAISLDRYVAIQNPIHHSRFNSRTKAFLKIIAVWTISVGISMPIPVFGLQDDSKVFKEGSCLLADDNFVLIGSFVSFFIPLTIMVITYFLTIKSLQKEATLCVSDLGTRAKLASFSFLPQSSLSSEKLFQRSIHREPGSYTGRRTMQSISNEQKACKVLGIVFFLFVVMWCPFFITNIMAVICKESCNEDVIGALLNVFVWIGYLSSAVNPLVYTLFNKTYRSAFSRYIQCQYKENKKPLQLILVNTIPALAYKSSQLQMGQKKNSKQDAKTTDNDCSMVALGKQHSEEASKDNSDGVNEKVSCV
CYP 3A4, sequence (P08684 whole entry): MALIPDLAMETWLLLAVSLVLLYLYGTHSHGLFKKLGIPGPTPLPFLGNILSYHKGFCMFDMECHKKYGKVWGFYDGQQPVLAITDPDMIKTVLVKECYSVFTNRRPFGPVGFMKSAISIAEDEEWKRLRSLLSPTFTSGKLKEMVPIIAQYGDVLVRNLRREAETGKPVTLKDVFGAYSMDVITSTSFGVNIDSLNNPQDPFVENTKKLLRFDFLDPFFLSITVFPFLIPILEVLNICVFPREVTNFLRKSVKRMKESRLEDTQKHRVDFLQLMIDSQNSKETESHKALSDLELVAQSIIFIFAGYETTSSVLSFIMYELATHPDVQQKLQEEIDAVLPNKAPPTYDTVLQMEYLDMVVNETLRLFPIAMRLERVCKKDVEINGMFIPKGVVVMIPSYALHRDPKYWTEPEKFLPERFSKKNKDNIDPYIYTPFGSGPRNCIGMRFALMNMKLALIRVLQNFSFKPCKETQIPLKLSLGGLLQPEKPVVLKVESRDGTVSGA
CYP 2C9, sequence (P11712 whole entry): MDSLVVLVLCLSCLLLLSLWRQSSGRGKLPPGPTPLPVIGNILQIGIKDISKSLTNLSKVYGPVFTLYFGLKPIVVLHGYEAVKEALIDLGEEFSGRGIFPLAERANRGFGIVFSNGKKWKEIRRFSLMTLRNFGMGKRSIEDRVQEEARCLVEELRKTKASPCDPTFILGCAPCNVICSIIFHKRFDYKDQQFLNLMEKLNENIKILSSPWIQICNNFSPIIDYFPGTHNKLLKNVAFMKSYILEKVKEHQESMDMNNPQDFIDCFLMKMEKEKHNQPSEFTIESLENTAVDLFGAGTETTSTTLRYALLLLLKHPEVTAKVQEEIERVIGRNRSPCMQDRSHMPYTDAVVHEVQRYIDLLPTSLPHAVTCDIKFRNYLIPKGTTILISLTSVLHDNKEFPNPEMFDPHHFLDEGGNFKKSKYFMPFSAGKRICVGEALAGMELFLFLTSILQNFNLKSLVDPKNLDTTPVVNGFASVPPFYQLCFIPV
CYP 2D6, sequence (P10635 whole entry): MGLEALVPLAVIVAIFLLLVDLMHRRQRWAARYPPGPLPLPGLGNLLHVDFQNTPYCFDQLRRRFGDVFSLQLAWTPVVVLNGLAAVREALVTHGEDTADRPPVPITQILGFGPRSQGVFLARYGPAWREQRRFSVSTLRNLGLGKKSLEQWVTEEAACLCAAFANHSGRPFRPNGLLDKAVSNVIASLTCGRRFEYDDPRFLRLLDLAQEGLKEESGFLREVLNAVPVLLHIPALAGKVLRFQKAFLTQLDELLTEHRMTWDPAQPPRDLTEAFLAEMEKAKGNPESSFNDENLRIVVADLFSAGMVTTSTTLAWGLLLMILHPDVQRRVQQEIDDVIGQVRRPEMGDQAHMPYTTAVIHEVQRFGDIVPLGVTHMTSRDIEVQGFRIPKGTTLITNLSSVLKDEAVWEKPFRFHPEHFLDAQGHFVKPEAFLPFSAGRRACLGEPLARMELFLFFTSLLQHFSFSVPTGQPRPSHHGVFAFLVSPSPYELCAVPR
hERG, sequence (Q12809 whole entry): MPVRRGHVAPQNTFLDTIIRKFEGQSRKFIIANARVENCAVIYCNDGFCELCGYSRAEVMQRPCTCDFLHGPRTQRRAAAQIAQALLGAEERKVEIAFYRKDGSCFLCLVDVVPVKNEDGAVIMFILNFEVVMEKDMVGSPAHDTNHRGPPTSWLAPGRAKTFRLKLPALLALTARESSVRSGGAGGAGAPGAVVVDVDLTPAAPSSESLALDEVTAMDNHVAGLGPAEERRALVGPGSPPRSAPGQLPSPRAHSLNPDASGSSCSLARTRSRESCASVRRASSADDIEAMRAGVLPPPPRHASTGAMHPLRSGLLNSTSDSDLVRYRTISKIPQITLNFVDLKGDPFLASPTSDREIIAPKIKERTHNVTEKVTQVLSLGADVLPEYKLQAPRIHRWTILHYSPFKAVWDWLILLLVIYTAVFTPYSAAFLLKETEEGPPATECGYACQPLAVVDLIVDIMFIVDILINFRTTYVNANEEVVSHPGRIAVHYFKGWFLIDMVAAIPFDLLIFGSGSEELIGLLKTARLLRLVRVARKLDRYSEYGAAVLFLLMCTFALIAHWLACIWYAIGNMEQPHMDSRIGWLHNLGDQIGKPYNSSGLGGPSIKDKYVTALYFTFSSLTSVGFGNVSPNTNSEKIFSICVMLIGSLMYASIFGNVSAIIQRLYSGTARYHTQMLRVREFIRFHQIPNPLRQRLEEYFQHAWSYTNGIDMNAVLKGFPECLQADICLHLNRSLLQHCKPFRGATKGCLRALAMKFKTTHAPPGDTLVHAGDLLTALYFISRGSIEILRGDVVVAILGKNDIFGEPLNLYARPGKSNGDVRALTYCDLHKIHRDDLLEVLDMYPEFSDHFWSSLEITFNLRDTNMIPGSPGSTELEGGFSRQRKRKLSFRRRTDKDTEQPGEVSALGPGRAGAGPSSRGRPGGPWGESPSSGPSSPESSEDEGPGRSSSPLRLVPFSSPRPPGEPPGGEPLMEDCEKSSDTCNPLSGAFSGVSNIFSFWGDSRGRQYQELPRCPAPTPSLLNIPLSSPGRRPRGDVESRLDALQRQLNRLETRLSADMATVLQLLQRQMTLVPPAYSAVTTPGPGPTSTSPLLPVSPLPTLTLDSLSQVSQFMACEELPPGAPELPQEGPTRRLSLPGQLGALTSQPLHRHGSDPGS
CYP 2C19, sequence (P33261 whole entry): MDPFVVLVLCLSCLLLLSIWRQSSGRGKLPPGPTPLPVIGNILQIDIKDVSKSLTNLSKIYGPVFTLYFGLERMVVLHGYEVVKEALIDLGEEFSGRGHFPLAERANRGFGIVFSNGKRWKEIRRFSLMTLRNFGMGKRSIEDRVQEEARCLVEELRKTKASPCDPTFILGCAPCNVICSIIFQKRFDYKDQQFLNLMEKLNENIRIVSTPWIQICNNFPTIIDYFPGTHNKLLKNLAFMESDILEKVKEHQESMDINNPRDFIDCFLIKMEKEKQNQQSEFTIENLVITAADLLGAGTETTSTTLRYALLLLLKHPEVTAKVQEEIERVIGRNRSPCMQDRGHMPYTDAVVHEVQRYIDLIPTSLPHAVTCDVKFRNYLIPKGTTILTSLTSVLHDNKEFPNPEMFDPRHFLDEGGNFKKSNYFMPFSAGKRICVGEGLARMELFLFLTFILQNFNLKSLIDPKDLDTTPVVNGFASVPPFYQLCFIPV
T5 sequence (P20309 whole entry): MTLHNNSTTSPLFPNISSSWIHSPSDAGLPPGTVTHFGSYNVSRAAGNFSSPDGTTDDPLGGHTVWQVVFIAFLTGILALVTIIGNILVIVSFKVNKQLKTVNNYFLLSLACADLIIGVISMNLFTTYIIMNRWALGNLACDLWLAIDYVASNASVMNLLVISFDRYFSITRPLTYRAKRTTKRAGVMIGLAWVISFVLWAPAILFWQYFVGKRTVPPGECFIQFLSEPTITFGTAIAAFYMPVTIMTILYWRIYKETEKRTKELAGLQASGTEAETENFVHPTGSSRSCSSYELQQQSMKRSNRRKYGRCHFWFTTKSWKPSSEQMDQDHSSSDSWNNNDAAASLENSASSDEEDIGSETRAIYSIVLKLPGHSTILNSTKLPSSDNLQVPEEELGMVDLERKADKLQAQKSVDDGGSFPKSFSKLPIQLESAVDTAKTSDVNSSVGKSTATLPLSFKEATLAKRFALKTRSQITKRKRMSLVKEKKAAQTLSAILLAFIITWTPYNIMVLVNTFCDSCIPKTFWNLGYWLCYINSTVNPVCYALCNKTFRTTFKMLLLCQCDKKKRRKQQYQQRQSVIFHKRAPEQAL

CN1c2ccc(Cl)cc2N=C(N2CCNCC2)c2ccccc21 [8-Chloro-5-methyl-11-(piperazin-1-yl)-5H-dibenzo[b,e][1,4]diazepine]
MK-801 model (ID50 mg/kg sc) [1]: 1.5 mg/kg
IC50 (CYP 3A4): 0.4 µM
microsomal CLint [2]: 23 µL/min/mg
Emax (muscarinic M1 receptor; read-out: M1 eff (efficacy)): 65%
EC50 (muscarinic M1 receptor; read-out: M1 pEC50 (converted)): 0.0794 µM
Ames (Ames mutagenesis assay): Neg.
Amphetamine model (ID50 mg/kg po) [3]: >10 mg/kg
Amphetamine model (ID50 mg/kg sc) [3]: 6.0 mg/kg
IC50 (hERG): 1.3 µM
IC50 (CYP 2C9): > 10 µM
IC50 (CYP 1A2): > 10 µM
NOR Interpretation (novel object recognition): no effect
NOR - 60 minutes post training (novel object recognition): retained
NOR - 120 minutes post training (novel object recognition): not retained
EC50 (M1 receptor): 0.0794 µM
Emax (M1 receptor): 65%
IC50 (CYP 2D6): > 10 µM
Emax (muscarinic M2 receptor): 138%
EC50 (muscarinic M2 receptor): 1.26 µM
M3 eff (efficacy) (muscarinic M3 receptor): 14
microsomal CLint (Rat microsomal clearance): 1090 µL/min/mg
IC50 (CYP 2C19): > 10 µM
IC50 (5-HT2A receptor): > 10 µM
EC50 (D2 receptor): 0.0158 µM
Emax (D2 receptor; read-out: D2 intrinsic activity %): 29%

Cc1cccc2c1Oc1ccc(F)cc1N=C2N1CCNCC1 [8-Fluoro-4-methyl-11-(piperazin-1-yl)-dibenzo[b,f][1,4]oxazepine]
MK-801 model (ID50 mg/kg po) ([1]; po): 0.6 mg/kg
MK-801 model (ID50 mg/kg sc) [1]: 1.4 mg/kg
IC50 (CYP 3A4): ~1.5 µM
microsomal CLint [2]: 13 µL/min/mg
Ames (Ames mutagenesis assay): Neg.
Amphetamine model (ID50 mg/kg po) [3]: 2.8 mg/kg
Amphetamine model (ID50 mg/kg sc) [3]: 3.3 mg/kg
IC50 (hERG): 2.3 µM
IC50 (CYP 2C9): > 25 µM
IC50 (CYP 1A2): 1 µM
NOR Interpretation (novel object recognition): procognitive
NOR - 60 minutes post training (novel object recognition): retained
NOR - 120 minutes post training (novel object recognition): retained
EC50 (M1 receptor): 0.126 µM
Emax (M1 receptor): 56%
IC50 (CYP 2D6): > 25 µM
Emax (muscarinic M2 receptor): 50%
EC50 (muscarinic M2 receptor): 1.58 µM
microsomal CLint (Rat microsomal clearance): 247 µL/min/mg
IC50 (CYP 2C19): > 25 µM
IC50 (5-HT2A receptor): 0.126 µM
D2 intrinsic activity, in words (D2 receptor; devoid of agonist activity): antagonist
